The values below come from patent US11266609B2, “Bacitracin and/or daptomycin combined with cannabidiol for treatment of bacterial infections” (priority 2017, dated 2022).

Experiment [1] concerns the target T1, bacterial undecaprenyl pyrophosphate (UPP) synthase (Staphylococcus aureus, UniProt P60477).
T1 sequence (P60477 1-256): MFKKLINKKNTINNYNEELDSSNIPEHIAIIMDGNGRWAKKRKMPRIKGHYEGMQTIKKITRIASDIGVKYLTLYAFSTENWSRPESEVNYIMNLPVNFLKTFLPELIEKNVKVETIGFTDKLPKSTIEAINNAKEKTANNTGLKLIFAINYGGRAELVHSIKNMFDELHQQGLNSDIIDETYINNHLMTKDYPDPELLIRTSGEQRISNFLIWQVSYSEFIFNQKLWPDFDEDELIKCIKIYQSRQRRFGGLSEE
To be noted: The Journal of Antibiotics 69, 798-805 (2016); cited from earlier work.

Experiment [2] concerns Gram-positive bacteria including methicillin-resistant Staphylococcus aureus (MRSA). Particulars: particularly against Gram-positive bacteria including MRSA; cited from earlier work.
In experiment [3] the test system is MRSA USA300 FPR3757. Briefly: microbe, parasite or virus in culture. It counts as cell-based, Staphylococcus aureus. How it is done: (§1) The resistant bacterium MRSA USA300 FPR3757 (USA300) was the main used bacterium throughout this study. MRSA was grown in Brain Heart Infusion (BHI) or Müeller Hinton (MH) media on plate or in liquid cultures with agitation at 37° C.
(§2) An ON culture was made by inoculating a bacterial colony in either 5 mL of MH or BHI and incubating at 37° C. with agitation. The antibiotic of interest was added to a row of a sterile 96-well plate (VWR) and a serial dilution was made down the rows containing 50 μL of MH or BHI media in each well, resulting in 2-fold dilution for each row. The ON culture was diluted to OD625 at approximately 1.0 followed by a 1:100 dilution to approximately OD625=0.01 of which 50 μL was added to each well to a final volume of 100 μL. The 96-well plate was incubated at 37° C. with shaking at 225 rpm for approximately 18-24 hours. Presence and absence of growth were determined by visual appearance.
B) The other screen was based on fractional inhibitory concentration (FIC) index.

Experiment [4] concerns MRSA USA300. Briefly: Micro dilution growth experiments using oCelloScope, CBD combined with antibiotics (FIG. 1). It counts as cell-based, Staphylococcus aureus. Particulars: combination with CBD 1-2 μg/mL; bacitracin 16, daptomycin 4, tetracycline 16, fosfomycin 16, dicloxacillin 0.0625, chlorhexidine 0.25, vancomycin 0.5 μg/mL (FIG. 1). How it is done: BCA: Background corrected absorption. ? Growth control, ? CBD, -▴- Antibiotic, ? Combination.
as §1
An ON culture was made by inoculating a bacterial colony in either 5 mL of MH or BHI at incubated at 37° C. with agitation. 25 μL of specific concentrations of the antibiotic and cannabinoid to be tested was added to the desired wells of a sterile 96-well plate (Thermo Scientific). 25 μL of MH or BHI media was added to the wells only containing one of the two compounds tested. The bacterial ON culture was diluted to a final OD600 nm of 0.005 and 50 μL was dispensed into each well to a final volume of 100 μL. To decrease evaporation, 2 mL of pre-heated water was added to the corners of the 96-well plate containing cavities. The plate was placed in the oCelloScope inside an incubator at 37° C. Illumination level and focus was adjusted for each well and the growth was measured for approximately 25 hours. Measurements were performed every half an hour for the first half of the time and every hour for the last half using the UniExplorer software. Data retrieved was given in Background corrected absorption (BCA), formerly known as pixel histogram summation (PHS), an algorithm enabling determination of bacterial growth kinetics resulting from images taken with the oCelloScope camera.
A) A screen was performed using the Philips oCelloScope enabling measurements of bacterial growth in presence or absence of either cannabidiol alone or in combination with an antibiotic or antimicrobial, through a 3D scanning system in 96-well plates.

In experiment [5] the test system is E. faecalis (13-327129). Briefly: microbe, parasite or virus in culture. It counts as cell-based, Enterococcus faecalis. Particulars: Enterococcus faecalis; E. faecalis (13-327129); read-out: MIC. Here is the method:
(§3) Additional bacteria Enterococcus faecalis (13-327129), Enterococcus faecalis (16-7418), Methicillin-resistant Staphylococcus epidermidis (933010 3F-16 b4), Listeria monocytogenes EGD, Pseudomonas aeruginosa (PA01), Salmonella typhimurium (14028), Klepsiella pneumoniae (CAS55), Vibrio cholerae (A1522), and Escherichia coli (UTI89) were either grown in BHI or Lysogeny broth (LB) media.
as §2, with “appearance. FIC index was calculated as follows (Alam M T et al. Antibacterial activity of different organic extracts of Achyranthes aspera and Cassia alata. J Sci Res. 2009).” for “appearance.”
(§4) To study the bacterial spectrum of the combination, CBD and bacitracin growth measurements of other Gram-positive bacteria tests on Enterococcus faecalis, an MRSE strain and a strain of Listeria monocytogenes were performed as described in Example 1.
(§5) The MIC for bacitracin and CBD and the respective FIC values are visualized in table 2 for the Gram-positive bacteria and are calculated based on two biological replicates.

Experiment [6] deals with E. faecalis (16-7418). Briefly: microbe, parasite or virus in culture. To be noted: Enterococcus faecalis; E. faecalis (16-7418); read-out: MIC. It counts as cell-based, Enterococcus faecalis. Here is the method:
as §3
as §2, with “appearance. FIC index was calculated as follows (Alam M T et al. Antibacterial activity of different organic extracts of Achyranthes aspera and Cassia alata. J Sci Res. 2009).” for “appearance.”
as §4, §5

The test system of experiment [7] is MRSE (933010 3F-16 b4). Briefly: microbe, parasite or virus in culture. In kind it is cell-based, Methicillin-resistant Staphylococcus epidermidis. Particulars: Staphylococcus epidermidis, MRSE. How it is done:
as §3
as §2, with “appearance. FIC index was calculated as follows (Alam M T et al. Antibacterial activity of different organic extracts of Achyranthes aspera and Cassia alata. J Sci Res. 2009).” for “appearance.”
as §4, §5

Experiment [8] concerns L. monocytogenes EGD. Briefly: microbe, parasite or virus in culture. It counts as cell-based, Listeria monocytogenes. Particulars: Listeria monocytogenes; L. monocytogenes EGD; read-out: MIC. How it is done:
as §3
as §2, with “appearance. FIC index was calculated as follows (Alam M T et al. Antibacterial activity of different organic extracts of Achyranthes aspera and Cassia alata. J Sci Res. 2009).” for “appearance.”
as §4, §5

In experiment [9] the test system is Escherichia coli (UTI89). Briefly: MIC, Gram-negative bacteria. It counts as cell-based. To be noted: above tested concentrations. How it is done: as §3
as §2, with “appearance. FIC index was calculated as follows (Alam M T et al. Antibacterial activity of different organic extracts of Achyranthes aspera and Cassia alata. J Sci Res. 2009).” for “appearance.”
(§6) To further assess the spectrum of use for the combination of CBD and bacitracin, growth of Gram-negative bacteria upon treatment was measured as well as described in Example 1.
(§7) The Gram-negative bacteria tested were strains of Pseudomonas aeruginosa, Salmonella typhimurium, Klepsiella pneumoniae, Vibrio cholera, and Escherichia coli. MIC for CBD and bacitracin in the Gram-negative bacteria are visualized in table 3, and were both above tested concentrations.

Experiment [10] relates to Klepsiella pneumoniae (CAS55). Briefly: MIC, Gram-negative bacteria. It counts as cell-based. To be noted: above tested concentrations. How it is done:
as §3
as §2, with “appearance. FIC index was calculated as follows (Alam M T et al. Antibacterial activity of different organic extracts of Achyranthes aspera and Cassia alata. J Sci Res. 2009).” for “appearance.”
as §6, §7

Experiment [11] has as its system Pseudomonas aeruginosa (PA01). The experiment in a line: MIC, Gram-negative bacteria. It counts as cell-based. To be noted: above tested concentrations. Here is the method:
as §3
as §2, with “appearance. FIC index was calculated as follows (Alam M T et al. Antibacterial activity of different organic extracts of Achyranthes aspera and Cassia alata. J Sci Res. 2009).” for “appearance.”
as §6, §7

The test system of experiment [12] is Salmonella typhimurium (14028). The experiment in a line: MIC, Gram-negative bacteria. In kind it is cell-based. To be noted: Salmonella enterica, above tested concentrations. Here is the method:
as §3
as §2, with “appearance. FIC index was calculated as follows (Alam M T et al. Antibacterial activity of different organic extracts of Achyranthes aspera and Cassia alata. J Sci Res. 2009).” for “appearance.”
as §6, §7

Experiment [13] deals with Vibrio cholerae (A1522). Briefly: microbe, parasite or virus in culture. In kind it is cell-based. To be noted: Vibrio cholerae. How it is done: as §3
as §2, with “The 96-well plate was incubated at 37° C. with shaking at 225 rpm for approximately 18-24 hours.” left out, “appearance. FIC index was calculated as follows (Alam M T et al. Antibacterial activity of different organic extracts of Achyranthes aspera and Cassia alata. J Sci Res. 2009).” for “appearance.”
To further assess the spectrum of use for the combination of CBD and bacitracin, growth of Gram-negative bacteria upon treatment was measured as well as described in Example 1. […]

Converted amounts (≈) assume the structure as drawn.

As a reminder, the IC50 is the concentration that inhibits the measured activity by half. In the case of Viridicatumtoxin, in experiment [1], the IC50 was 4 µM. Also, in experiment [2], the antimicrobial activity entry is on record as “showed antimicrobial activity”.
`Cc1onc(-c2c(Cl)cccc2Cl)c1C(=O)N[C@@H]1C(=O)N2[C@@H]1SC(C)(C)[C@@H]2C(=O)O` [Dicloxacillin] showed an MIC in experiment [3] (Staphylococcus aureus) of 0.25 µg/mL (≈ 0.532 µM). For the same compound, in experiment [3] (WT USA300, combination of cannabidiol with the respective antibiotic, synergy <= 0.5, no interaction 0.5-4.0, antagonism > 4), the “FIC Index” value is listed as 2. Moreover, the “synergistic potential in growth curves” value in experiment [4] is “no synergistic potential”.
Take `CCCCCc1cc(O)c(C/C=C(\C)CCC=C(C)C)c(O)c1` [Cannabigerol (CBG), Cannabigerol]: in experiment [3] (USA300), the “FIC index (with bacitracin)” value stood at 0.88 and the “FIC index (with daptomycin)” value stood at 1.0. For the same compound, the MIC in [3] (USA300, Table 4, unit not given) is listed as 4.
With `COc1cc(O)c2c(O)c3c(c4c2c1C1(C4)C(C)=CCCC1(C)C)C(O)C1(O)CC(=O)C(C(C)=O)=C(O)C1(O)C3=O` (centres unmarked) [Spirohexaline], the concentration for half-maximal inhibition (IC50) in experiment [1] was 9 µM. The antimicrobial activity entry in experiment [2] was “showed antimicrobial activity”.
The compound `CCCCCCCCCC(=O)N[C@@H](Cc1c[nH]c2ccccc12)C(=O)N[C@H](CC(N)=O)C(=O)N[C@@H](CC(=O)O)C(=O)N[C@@H]1C(=O)NCC(=O)N[C@@H](CCCN)C(=O)N[C@@H](CC(=O)O)C(=O)N[C@H](C)C(=O)N[C@@H](CC(=O)O)C(=O)NCC(=O)N[C@H](CO)C(=O)N[C@@H]([C@H](C)CC(=O)O)C(=O)N[C@@H](CC(=O)c2ccccc2N)C(=O)O[C@@H]1C` [Daptomycin] registered an MIC in [3] (USA300) of 16 µg/mL (≈ 9.87 µM). Besides, the “synergistic potential in growth curves” value in [4] was “to some degree”.
As for `C=C(C)[C@@H]1CCC(C)=C[C@H]1c1c(O)cc(CCCCC)cc1O` [Cannabidiol (CBD), Cannabidiol], the MIC in [3] (MRSA USA300 FPR3757, Table 2, two biological replicates) turned out to be 4 µg/mL (≈ 12.7 µM); in [3] (Staphylococcus aureus), 4 µg/mL (≈ 12.7 µM); in experiment [5], 16 µg/mL; in experiment [6] it was 16 µg/mL; in experiment [7], 4 µg/mL; in experiment [8] it was 4 µg/mL. The MIC in experiment [9], in [10], in experiment [11], in experiment [12] and in experiment [13] was more than 128 µg/mL each time.
